In the METLIN SMRT retention time set (Domingo-Almenara et al. 2019):

Assay: gradient 5% acetonitrile 3 min, to 50% in 2 min, to 85% in 15 min, held 3 min, 100 µL/min
Details: column: Zorbax Extend-C18 2.1 x 50 mm; eluents: water / acetonitrile, 0.1% formic acid
Procedure, shortened: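 Using water and acetonitrile that each contained 0.1% formic acid, mixtures of ~100 pure standards were separated at 100 μL/min on a Zorbax Extend-C18 column (2.1 × 50 mm, 1.8 μm). The HPLC fed a quadrupole time-of-flight mass spectrometer working in positive and negative ionization mode, with dead and dwell volumes of 40 μL and 900 μL. Data were acquired over 3 months. Retention time was read from computationally picked adduct peaks after manual inspection of each.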
An RP-LC retention time of 854 s was found for `COc1ccc(OC)c2sc(NC(=O)CS(=O)(=O)c3ccc(Cl)cc3)nc12` in this work.
An RP-LC retention time of 600 s was found for `CCOC(=O)C1CCN(Cc2nc(-c3ccc(N4CCCCCC4)nc3)no2)CC1` in this work.
An RP-LC retention time of 1050 s was found for `Cc1cc(NC(=O)c2csc(-c3cn(C)c4ncccc34)n2)ccc1F` in this work.
An RP-LC retention time of 756 s was found for `CCNC(=O)c1nc(Nc2ccc(CC)cc2)c2ccccc2n1` in this work.
An RP-LC retention time of 589 s was found for `Cc1nnc2cc(N3CCN(Cc4csc5c4CCCC5)CC3)cnn12` in this work.
An RP-LC retention time of 828 s was found for `COc1cc(-c2c(NC(=O)c3ccco3)sc3ccccc3c2=O)cc(OC)c1OC` in this work.
An RP-LC retention time of 843 s was found for `CCc1ccc(NC(=O)Cn2cnc3onc(C)c3c2=O)cc1` in this work.
An RP-LC retention time of 689 s was found for `Cc1ccc(NC(=O)N2CC(c3nc(C(C)C)nn3C)C2)cc1` in this work.
An RP-LC retention time of 600 s was found for `CC(C)(C)C(=O)NCc1cccnc1-c1ccccc1` in this work.
An RP-LC retention time of 1100 s was found for `C=CCn1c(=O)c2ccccc2n(Cc2nc(-c3cccc(OCC)c3)no2)c1=O` in this work.
An RP-LC retention time of 843 s was found for `COCCn1cc(C(=O)NC2CCCC2)c2nn(-c3ccccc3)c(=O)c-2c1` in this work.
An RP-LC retention time of 642 s was found for `CC1=C(c2ccc(Cl)cc2)S(=O)(=O)N=C1N1CCC(C(=O)NCCN(C)C)CC1` in this work.
An RP-LC retention time of 591 s was found for `COc1ccc2c(c1)c(CN1CC[C@H](CO)[C@H](N(C)C)C1)cn2C(C)C` in this work.
An RP-LC retention time of 861 s was found for `O=C1CN(C(=O)COc2cccc3ccccc23)c2ccccc2N1` in this work.
An RP-LC retention time of 662 s was found for `CCNc1cc(N2CCCC(CCC(=O)NCCC(C)C)C2)ncn1` (centres undefined) in this work.
An RP-LC retention time of 792 s was found for `COC(=O)C(C)NC(=O)NCc1cccn1Cc1cccc(F)c1` (centres undefined) in this work.
An RP-LC retention time of 638 s was found for `CCn1c(N2CCCC(C(=O)NCCN3CCN(c4ccccc4)CC3)C2)cc(=O)n(C)c1=O` (centres undefined) in this work.
An RP-LC retention time of 749 s was found for `CCN1c2ccc(F)cc2C(=O)NC12CCN(C(=O)c1ccc3c(c1)OCO3)CC2` in this work.
An RP-LC retention time of 662 s was found for `CC(C)N1C(=O)c2cccnc2Sc2cc(NC(=O)c3cccnc3)ccc21` in this work.
An RP-LC retention time of 818 s was found for `CN1CCN(C2=Cc3ccccc3Oc3ccc(Cl)cc32)CC1` in this work.
An RP-LC retention time of 1150 s was found for `CCOC(=O)O[C@]1(C(=O)OCCl)CC[C@H]2[C@@H]3CCC4=CC(=O)C=C[C@]4(C)[C@H]3[C@@H](O)C[C@@]21C` in this work.
An RP-LC retention time of 861 s was found for `Cc1c(C(=O)C(=O)Nc2ccc3c(c2)OCCO3)c2ccccc2n1C` in this work.
An RP-LC retention time of 550 s was found for `Cc1noc(C)c1CN1CCN(C(=O)Cn2c(=O)oc3ccccc32)CC1` in this work.
An RP-LC retention time of 756 s was found for `COc1cccc(CNC(=O)Cn2ccc3ccc(-c4nnc(C)o4)cc32)c1` in this work.
An RP-LC retention time of 970 s was found for `COc1cccc(-c2ccnc3nc(CCc4ccccc4)nn23)c1` in this work.
An RP-LC retention time of 1150 s was found for `CCCN1C(=O)COc2ccc(-c3csc(NC(=O)c4cccc(Cl)c4)n3)cc21` in this work.
An RP-LC retention time of 783 s was found for `CC1CCN(C(=O)c2ccc(CN3CCN(Cc4ccc(F)cc4)C(=O)C3=O)cc2)CC1` in this work.
An RP-LC retention time of 905 s was found for `Fc1ccc(Cc2nc3nccc(-c4ccsc4)n3n2)cc1` in this work.
An RP-LC retention time of 908 s was found for `Cc1cccc(C2CCCN2C(=O)c2c(Br)cnn2C)c1` (centres undefined) in this work.
An RP-LC retention time of 746 s was found for `Cc1cc(C)c2c(N3CCSCC3)nc(C(=O)NCc3cccs3)nc2n1` in this work.
An RP-LC retention time of 703 s was found for `Cc1noc(-c2nc(-c3ccncc3)no2)n1` in this work.
An RP-LC retention time of 1210 s was found for `Cc1ccc(-c2noc(Cc3nnc(-c4ccc(C)c(F)c4)o3)n2)cc1C` in this work.
An RP-LC retention time of 587 s was found for `Cc1ccc(CN2CCC(N3CC(F)(F)C[C@H]3COc3cccnc3)CC2)s1` in this work.
An RP-LC retention time of 595 s was found for `COc1cccc2c(Nc3ccc(S(N)(=O)=O)cc3)cc(C(=O)N3CCSCC3)nc12` in this work.
An RP-LC retention time of 1020 s was found for `Cc1ccc(NC(=O)c2cc3c(=O)n(CC(C)C)ccc3n2C)cc1Cl` in this work.
An RP-LC retention time of 860 s was found for `CC(C)CCNC(=O)Cn1cccc(-c2nc(-c3ccc(F)cc3)no2)c1=O` in this work.
An RP-LC retention time of 1040 s was found for `CCS(=O)(=O)c1nc2ccc(NS(=O)(=O)c3ccc(C(C)(C)C)cc3)cc2s1` in this work.
An RP-LC retention time of 658 s was found for `CCOc1ccc(NC(=O)Cn2c(C)nc3cc4c(cc32)OCCO4)cc1` in this work.
An RP-LC retention time of 972 s was found for `CCOc1ccc(NC(=O)C2CCN(S(C)(=O)=O)c3cc(C)ccc3O2)cc1` (centres undefined) in this work.
An RP-LC retention time of 740 s was found for `Cc1nc(C2CCOCC2)n(C2CCN(S(=O)(=O)c3cc(F)cc(F)c3)C2)n1` (centres undefined) in this work.
An RP-LC retention time of 924 s was found for `CCN1C(=O)c2cc(S(=O)(=O)Nc3ccccc3F)ccc2Oc2cccnc21` in this work.
An RP-LC retention time of 1120 s was found for `CCCCn1cc(S(=O)(=O)N2CCN(c3ccccc3)CC2)c2cccnc21` in this work.
An RP-LC retention time of 596 s was found for `Cc1nc2nc(-c3ccco3)nn2c(N2CCN(c3ccccn3)CC2)c1C` in this work.
An RP-LC retention time of 601 s was found for `CCCN1CCN(c2cc(C(=O)O)c3cc(NC(=O)c4ccccc4F)ccc3n2)CC1` in this work.
